Consider one compound from article PMC7093242 (Cell chemical biology, 2020).

The experiment concerns the target Yck2-HA (HA-tagged Yck2) (Candida albicans, UniProt A0A1D8PKB4). Kind of experiment: ADP-Glo kinase assay on immunoprecipitated Yck2-HA beads. The settings on record: 25 μM ATP, 0.2 mg/mL casein kinase I peptide substrate, pH 7.5, 30°C; little effect. The class given is biochemical. For orientation: ADP-Glo first removes unused ATP, then detects ADP through luciferase.

On to `CN[C@@H]1C[C@H]2O[C@@](C)([C@@H]1OC)n1c3ccccc3c3c4c(c5c6ccccc6n2c5c31)C(=O)NC4` [STS, staurosporine], for which the concentration-dependent inhibition result was “the promiscuous PKI, staurosporine had little effect on Yck2 activity”.
